Consider 14 compounds from US11331369B2, “Endoparasitic depsipeptides” (Zoetis Services LLC, priority 2017, dated 2022).

The assay deals with microfilariae of Dirofilaria immitis. The experiment in a line: Dirofilaria immitis, Microfilaria (DiMF) In vitro Assay. Type of assay: cell-based. The following applies: 72 h, read-out: DiMF Minimum Effective Dose (MED), approximately 72 hours incubation, microfilariae assessed for survival or paralysis.
Turning to `CC(C)C[C@H]1C(=O)O[C@H](Cc2ccc(Cn3ccc(Br)n3)cc2)C(=O)N(C)[C@@H](CC(C)C)C(=O)O[C@H](C)C(=O)N(C)[C@@H](CC(C)C)C(=O)O[C@H](Cc2ccccc2)C(=O)N(C)[C@@H](CC(C)C)C(=O)O[C@H](C)C(=O)N1C` [Example 2-57, (3S,6R,9S,12R,15S,18R,21S,24R)-6-benzyl-18-(4-((3-bromo-1H-pyrazol-1-yl)methyl)benzyl)-3,9,15,21-tetraisobutyl-4,10,12,16,22,24-hexamethyl-1,7,13,19-tetraoxa-4,10,16,22-tetraazacyclotetracosan-2,5,8,11,14,17,20,23-octaone], the minimal effective concentration was 0.01 to 0.1 µM.

Take `CC(C)C[C@H]1C(=O)O[C@H](Cc2ccc(Cn3cc(C#CC4CC4)cn3)cc2)C(=O)N(C)[C@@H](CC(C)C)C(=O)O[C@H](C)C(=O)N(C)[C@@H](CC(C)C)C(=O)O[C@H](Cc2ccccc2)C(=O)N(C)[C@@H](CC(C)C)C(=O)O[C@H](C)C(=O)N1C` [Example 2-75, (3S,6R,9S,12R,15S,18R,21S,24R)-6-benzyl-18-(4-((4-(cyclopropylethynyl)-1H-pyrazol-1-yl)methyl)benzyl)-3,9,15,21-tetraisobutyl-4,10,12,16,22,24-hexamethyl-1,7,13,19-tetraoxa-4,10,16,22-tetraazacyclotetracosan-2,5,8,11,14,17,20,23-octaone]: the minimal effective concentration fell in the range of 0.001 to 0.01 µM.

For `CSc1cnn(Cc2ccc(C[C@H]3OC(=O)[C@H](CC(C)C)N(C)C(=O)[C@@H](C)OC(=O)[C@H](CC(C)C)N(C)C(=O)[C@@H](Cc4ccc(Cn5cc(SC)cn5)cc4)OC(=O)[C@H](CC(C)C)N(C)C(=O)[C@@H](C)OC(=O)[C@H](CC(C)C)N(C)C3=O)cc2)c1` [Example 1b-20, (3S,6R,9S,12R,15S,18R,21S,24R)-3,9,15,21-tetraisobutyl-4,6,10,16,18,22-hexamethyl-12,24-bis[[4-[(4-methylsulfanylpyrazol-1-yl)methyl]phenyl]methyl]-1,7,13,19-tetraoxa-4,10,16,22-tetrazacyclotetracosane-2,5,8,11,14,17,20,23-octaone], the minimal effective concentration is 0.01 to 0.1 µM.

On to `Cc1cn(Cc2ccc(C[C@H]3OC(=O)[C@H](CC(C)C)N(C)C(=O)[C@@H](C)OC(=O)[C@H](CC(C)C)N(C)C(=O)[C@@H](Cc4ccc(Cn5cnc(C)c5)cc4)OC(=O)[C@H](CC(C)C)N(C)C(=O)[C@@H](C)OC(=O)[C@H](CC(C)C)N(C)C3=O)cc2)cn1` [Example 6-14, (3S,6R,9S,12R,15S,18R,21S,24R)-3,9,15,21-tetraisobutyl-4,6,10,16,18,22-hexamethyl-12,24-bis(4-((4-methyl-1H-imidazol-1-yl)methyl)benzyl)-1,7,13,19-tetraoxa-4,10,16,22-tetraazacyclotetracosan-2,5,8,11,14,17,20,23-octaone], for which the minimal effective concentration fell in the range of 0.01 to 0.1 µM.

For the compound `Cc1nccn1Cc1ccc(C[C@H]2OC(=O)[C@H](CC(C)C)N(C)C(=O)[C@@H](C)OC(=O)[C@H](CC(C)C)N(C)C(=O)[C@@H](Cc3ccc(Cn4ccnc4C)cc3)OC(=O)[C@H](CC(C)C)N(C)C(=O)[C@@H](C)OC(=O)[C@H](CC(C)C)N(C)C2=O)cc1` [Example 6-1, (3S,6R,9S,12R,15S,18R,21S,24R)-3,9,15,21-tetraisobutyl-4,6,10,16,18,22-hexamethyl-12,24-bis[[4-[(2-methylimidazol-1-yl)methyl]phenyl]methyl]-1,7,13,19-tetraoxa-4,10,16,22-tetrazacyclotetracosane-2,5,8,11,14,17,20,23-octaone], the minimal effective concentration lay within 0.001 to 0.01 µM.

In the case of `CC(C)C[C@H]1C(=O)O[C@H](Cc2ccc(Cn3cc4c(n3)CCC4)cc2)C(=O)N(C)[C@@H](CC(C)C)C(=O)O[C@H](C)C(=O)N(C)[C@@H](CC(C)C)C(=O)O[C@H](Cc2ccc(Cn3cc4c(n3)CCC4)cc2)C(=O)N(C)[C@@H](CC(C)C)C(=O)O[C@H](C)C(=O)N1C` [Example 9-42, (3S,6R,9S,12R,15S,18R,21S,24R)-6,18-bis[[4-(5,6-dihydro-4H-cyclopenta[c]pyrazol-2-ylmethyl)phenyl]methyl]-3,9,15,21-tetraisobutyl-4,10,12,16,22,24-hexamethyl-1,7,13,19-tetraoxa-4,10,16,22-tetrazacyclotetracosane-2,5,8,11,14,17,20,23-octaone], the minimal effective concentration was 0.01 to 0.1 µM.

For `CC(C)C[C@H]1C(=O)O[C@H](Cc2ccc(Cn3cc(OCCN)cn3)cc2)C(=O)N(C)[C@@H](CC(C)C)C(=O)O[C@H](C)C(=O)N(C)[C@@H](CC(C)C)C(=O)O[C@H](Cc2ccc(Cn3cc(OCCN)cn3)cc2)C(=O)N(C)[C@@H](CC(C)C)C(=O)O[C@H](C)C(=O)N1C` [Example 1b-185, (3S,6R,9S,12R,15S,18R,21S,24R)-6,18-bis(4-((4-(2-aminoethoxy)-1H-pyrazol-1-yl)methyl)benzyl)-3,9,15,21-tetraisobutyl-4,10,12,16,22,24-hexamethyl-1,7,13,19-tetraoxa-4,10,16,22-tetraazacyclotetracosan-2,5,8,11,14,17,20,23-octaone], the minimal effective concentration was in the range of 0.01 to 0.1 µM.

In the case of `CC(C)C[C@H]1C(=O)O[C@H](Cc2cccc(Cn3cc(O)cn3)c2)C(=O)N(C)[C@@H](CC(C)C)C(=O)O[C@H](C)C(=O)N(C)[C@@H](CC(C)C)C(=O)O[C@H](Cc2ccccc2)C(=O)N(C)[C@@H](CC(C)C)C(=O)O[C@H](C)C(=O)N1C` [Example 5-3, (3S,6R,9S,12R,15S,18R,21S,24R)-6-benzyl-18-(3-((4-hydroxy-1H-pyrazol-1-yl)methyl)benzyl)-3,9,15,21-tetraisobutyl-4,10,12,16,22,24-hexamethyl-1,7,13,19-tetraoxa-4,10,16,22-tetraazacyclotetracosan-2,5,8,11,14,17,20,23-octaone], the minimal effective concentration was in the range of 0.01 to 0.1 µM.

For the compound `CC(C)C[C@H]1C(=O)O[C@H](Cc2ccc(Cn3ccc(N4CCOCC4)n3)cc2)C(=O)N(C)[C@@H](CC(C)C)C(=O)O[C@H](C)C(=O)N(C)[C@@H](CC(C)C)C(=O)O[C@H](Cc2ccc(Cn3ccc(N4CCOCC4)n3)cc2)C(=O)N(C)[C@@H](CC(C)C)C(=O)O[C@H](C)C(=O)N1C` [Example 1b-105, (3S,6R,9S,12R,15S,18R,21S,24R)-3,9,15,21-tetraisobutyl-4,6,10,16,18,22-hexamethyl-12,24-bis(4-((3-morpholino-1H-pyrazol-1-yl)methyl)benzyl)-1,7,13,19-tetraoxa-4,10,16,22-tetraazacyclotetracosan-2,5,8,11,14,17,20,23-octaone], the minimal effective concentration was in the range of 0.001 to 0.01 µM.

Take `CC(C)C[C@H]1C(=O)O[C@H](Cc2ccc(Cn3cc(CCO)cn3)cc2)C(=O)N(C)[C@@H](CC(C)C)C(=O)O[C@H](C)C(=O)N(C)[C@@H](CC(C)C)C(=O)O[C@H](Cc2ccccc2)C(=O)N(C)[C@@H](CC(C)C)C(=O)O[C@H](C)C(=O)N1C` [Example 2-35, (3S,6R,9S,12R,15S,18R,21S,24R)-6-benzyl-18-(4-((4-(2-hydroxyethyl)-1H-pyrazol-1-yl)methyl)benzyl)-3,9,15,21-tetraisobutyl-4,10,12,16,22,24-hexamethyl-1,7,13,19-tetraoxa-4,10,16,22-tetraazacyclotetracosan-2,5,8,11,14,17,20,23-octaone]: the minimal effective concentration lay within 0.01 to 0.1 µM.

Consider `CC(C)C#Cc1cnn(Cc2ccc(C[C@H]3OC(=O)[C@H](CC(C)C)N(C)C(=O)[C@@H](C)OC(=O)[C@H](CC(C)C)N(C)C(=O)[C@@H](Cc4ccccc4)OC(=O)[C@H](CC(C)C)N(C)C(=O)[C@@H](C)OC(=O)[C@H](CC(C)C)N(C)C3=O)cc2)c1` [Example 2-70, (3S,6R,9S,12R,15S,18R,21S,24R)-6-benzyl-3,9,15,21-tetraisobutyl-4,10,12,16,22,24-hexamethyl-18-(4-((4-(3-methylbut-1-yn-1-yl)-1H-pyrazol-1-yl)methyl)benzyl)-1,7,13,19-tetraoxa-4,10,16,22-tetraazacyclotetracosan-2,5,8,11,14,17,20,23-octaone], for which the minimal effective concentration was 0.01 to 0.1 µM.

As to `CC(C)C[C@H]1C(=O)O[C@H](Cc2ccc(Cn3cc(-c4ccccc4)cn3)cc2)C(=O)N(C)[C@@H](CC(C)C)C(=O)O[C@H](C)C(=O)N(C)[C@@H](CC(C)C)C(=O)O[C@H](Cc2ccc(Cn3cccn3)cc2)C(=O)N(C)[C@@H](CC(C)C)C(=O)O[C@H](C)C(=O)N1C` [Example 1a-15, (3S,6R,9S,12R,15S,18R,21S,24R)-6-(4-((1H-pyrazol-1-yl)methyl)benzyl)-3,9,15,21-tetraisobutyl-4,10,12,16,22,24-hexamethyl-18-(4-((4-phenyl-1H-pyrazol-1-yl)methyl)benzyl)-1,7,13,19-tetraoxa-4,10,16,22-tetraazacyclotetracosan-2,5,8,11,14,17,20,23-octaone], the minimal effective concentration lay within 0.01 to 0.1 µM.

In the case of `Cc1cc(CC#N)nn1Cc1ccc(C[C@H]2OC(=O)[C@H](CC(C)C)N(C)C(=O)[C@@H](C)OC(=O)[C@H](CC(C)C)N(C)C(=O)[C@@H](Cc3ccc(Cn4nc(CC#N)cc4C)cc3)OC(=O)[C@H](CC(C)C)N(C)C(=O)[C@@H](C)OC(=O)[C@H](CC(C)C)N(C)C2=O)cc1` [Example 1b-7, 2,2′-((((((2R,5S,8R,11S,14R,17S,20R,23S)-5,11,17,23-tetraisobutyl-4,8,10,16,20,22-hexamethyl-3,6,9,12,15,18,21,24-octaoxo-1,7,13,19-tetraoxa-4,10,16,22-tetraazacyclotetracosane-2,14-diyl)bis(methylene))bis(4,1-phenylene))bis(methylene))bis(5-methyl-1H-pyrazole-1,3-diyl))diacetonitrile], the minimal effective concentration was 0.001 to 0.01 µM.

For `CC(C)C[C@H]1C(=O)O[C@H](Cc2ccc(Cn3cc(-c4nccs4)cn3)cc2)C(=O)N(C)[C@@H](CC(C)C)C(=O)O[C@H](C)C(=O)N(C)[C@@H](CC(C)C)C(=O)O[C@H](Cc2ccc(Cn3cc(-c4nccs4)cn3)cc2)C(=O)N(C)[C@@H](CC(C)C)C(=O)O[C@H](C)C(=O)N1C` [Example 1b-13, (3S,6R,9S,12R,15S,18R,21S,24R)-3,9,15,21-tetraisobutyl-4,6,10,16,18,22-hexamethyl-12,24-bis(4-((4-(thiazol-2-yl)-1H-pyrazol-1-yl)methyl)benzyl)-1,7,13,19-tetraoxa-4,10,16,22-tetraazacyclotetracosan-2,5,8,11,14,17,20,23-octaone], the minimal effective concentration was in the range of 0.01 to 0.1 µM.
